# Experimental data: US7067508B2, “Diaminedithiol derivatives and radiorhenium or radiotechnetium complex thereof; a liver cancer-treating composition comprising the radiorhenium complex and lipiodol; and a kit for preparation of the liver cancer-treating composition” (Seoul National University Industry Foundation, priority 2001, dated 2006)
# Test: Biodistribution of 188Re-labelled compounds in lipiodol solution in mice after tail vein injection
# Type: in vivo
# Conditions: mice (ICR)
# Method: To the ^188Re-labelled reaction mixture prepared in the foregoing Examples 4 to 6, lipiodol (5 ml) was added, mixed well and the solution was centrifuged at 3000 rpm for 10 min. The supernatant was removed and 2 ml saline was added. After mixing well, the resulting solution was centrifuged again at 3000 rpm for 10 min and the supernatant was removed to recover a lower phase of lipiodol.
# Mice (ICR) were administered with an injection of ^188Re-labelled compound in lipiodol solution which was prepared in the Example 7 via the tail vein. Radioactivity distributed in tissues and weight of each tissue were measured to calculate the percentage of radioactivity per gram of unit tissue relative to total radioactivity administered.
# As radiation accumulation mechanism in the lung and the liver cancer are similar, it is convenient to detect the level of radiation accumulating in the lung of a mouse suffering from liver cancer. […] Therefore, it can be inferred that a radiorhenium complex of a diaminedithiol derivative having a long side chain is effective for treating liver cancer.
smiles,measurement,setting,value
CCCCCCCCCCCCCCCC[N+]12CC[N]3CC(C)(C)[S][188Re-]31(=[O])[S]C(C)(C)C2 (centres unmarked) [^188Re-HTDD],"Biodistribution, radioactivity in Blood",10 min post-injection,8.1 ± 1.5 percentage of radioactivity per gram
same,"Biodistribution, radioactivity in Fat",10 min post-injection,3.9 ± 1.5 percentage of radioactivity per gram
same,"Biodistribution, radioactivity in Heart",10 min post-injection,9.4 ± 3.0 percentage of radioactivity per gram
same,"Biodistribution, radioactivity in Kidney",10 min post-injection,7.0 ± 1.8 percentage of radioactivity per gram
same,"Biodistribution, radioactivity in Liver",10 min post-injection,11.6 ± 1.7 percentage of radioactivity per gram
same,"Biodistribution, radioactivity in Lung",10 min post-injection,211.3 ± 30.0 percentage of radioactivity per gram
same,"Biodistribution, radioactivity in Muscle",10 min post-injection,1.9 ± 0.3 percentage of radioactivity per gram
same,"Biodistribution, radioactivity in Small intestine",10 min post-injection,3.4 ± 0.5 percentage of radioactivity per gram
same,"Biodistribution, radioactivity in Spleen",10 min post-injection,3.6 ± 0.8 percentage of radioactivity per gram
same,"Biodistribution, radioactivity in Stomach",10 min post-injection,7.4 ± 1.6 percentage of radioactivity per gram
same,"Biodistribution, radioactivity in Blood",30 min post-injection,9.1 ± 5.3 percentage of radioactivity per gram
same,"Biodistribution, radioactivity in Fat",30 min post-injection,2.8 ± 0.5 percentage of radioactivity per gram
same,"Biodistribution, radioactivity in Heart",30 min post-injection,6.0 ± 1.1 percentage of radioactivity per gram
same,"Biodistribution, radioactivity in Kidney",30 min post-injection,6.5 ± 0.9 percentage of radioactivity per gram
same,"Biodistribution, radioactivity in Liver",30 min post-injection,15.9 ± 1.6 percentage of radioactivity per gram
same,"Biodistribution, radioactivity in Lung",30 min post-injection,185.6 ± 20.9 percentage of radioactivity per gram
same,"Biodistribution, radioactivity in Muscle",30 min post-injection,1.5 ± 0.2 percentage of radioactivity per gram
same,"Biodistribution, radioactivity in Small intestine",30 min post-injection,6.5 ± 0.6 percentage of radioactivity per gram
same,"Biodistribution, radioactivity in Spleen",30 min post-injection,3.1 ± 0.2 percentage of radioactivity per gram
same,"Biodistribution, radioactivity in Stomach",30 min post-injection,15.1 ± 2.9 percentage of radioactivity per gram
same,"Biodistribution, radioactivity in Blood",1 hr post-injection,4.2 ± 0.5 percentage of radioactivity per gram
same,"Biodistribution, radioactivity in Fat",1 hr post-injection,2.7 ± 0.6 percentage of radioactivity per gram
same,"Biodistribution, radioactivity in Heart",1 hr post-injection,4.7 ± 0.9 percentage of radioactivity per gram
same,"Biodistribution, radioactivity in Kidney",1 hr post-injection,6.1 ± 1.4 percentage of radioactivity per gram
same,"Biodistribution, radioactivity in Liver",1 hr post-injection,14.4 ± 2.5 percentage of radioactivity per gram
same,"Biodistribution, radioactivity in Lung",1 hr post-injection,177.8 ± 18.4 percentage of radioactivity per gram
same,"Biodistribution, radioactivity in Muscle",1 hr post-injection,1.1 ± 0.2 percentage of radioactivity per gram
same,"Biodistribution, radioactivity in Small intestine",1 hr post-injection,9.3 ± 1.0 percentage of radioactivity per gram
same,"Biodistribution, radioactivity in Spleen",1 hr post-injection,3.0 ± 0.8 percentage of radioactivity per gram
same,"Biodistribution, radioactivity in Stomach",1 hr post-injection,21.0 ± 1.7 percentage of radioactivity per gram
same,"Biodistribution, radioactivity in Blood",3 hr post-injection,2.8 ± 0.5 percentage of radioactivity per gram
same,"Biodistribution, radioactivity in Fat",3 hr post-injection,2.0 ± 0.6 percentage of radioactivity per gram
same,"Biodistribution, radioactivity in Heart",3 hr post-injection,4.5 ± 0.8 percentage of radioactivity per gram
same,"Biodistribution, radioactivity in Kidney",3 hr post-injection,6.2 ± 1.2 percentage of radioactivity per gram
same,"Biodistribution, radioactivity in Liver",3 hr post-injection,9.0 ± 1.8 percentage of radioactivity per gram
same,"Biodistribution, radioactivity in Lung",3 hr post-injection,157.3 ± 28.6 percentage of radioactivity per gram
same,"Biodistribution, radioactivity in Muscle",3 hr post-injection,0.8 ± 0.2 percentage of radioactivity per gram
same,"Biodistribution, radioactivity in Small intestine",3 hr post-injection,12.2 ± 1.3 percentage of radioactivity per gram
same,"Biodistribution, radioactivity in Spleen",3 hr post-injection,2.7 ± 0.1 percentage of radioactivity per gram
same,"Biodistribution, radioactivity in Stomach",3 hr post-injection,19.3 ± 4.0 percentage of radioactivity per gram
same,"Biodistribution, radioactivity in Blood",24 hr post-injection,0.6 ± 0.1 percentage of radioactivity per gram
same,"Biodistribution, radioactivity in Fat",24 hr post-injection,0.8 ± 0.3 percentage of radioactivity per gram
same,"Biodistribution, radioactivity in Heart",24 hr post-injection,2.2 ± 0.8 percentage of radioactivity per gram
same,"Biodistribution, radioactivity in Kidney",24 hr post-injection,3.3 ± 0.7 percentage of radioactivity per gram
same,"Biodistribution, radioactivity in Liver",24 hr post-injection,5.6 ± 1.0 percentage of radioactivity per gram
same,"Biodistribution, radioactivity in Lung",24 hr post-injection,118.0 ± 19.5 percentage of radioactivity per gram
same,"Biodistribution, radioactivity in Muscle",24 hr post-injection,0.4 ± 0.1 percentage of radioactivity per gram
same,"Biodistribution, radioactivity in Small intestine",24 hr post-injection,6.2 ± 3.4 percentage of radioactivity per gram
same,"Biodistribution, radioactivity in Spleen",24 hr post-injection,9.3 ± 5.2 percentage of radioactivity per gram
same,"Biodistribution, radioactivity in Stomach",24 hr post-injection,5.5 ± 1.7 percentage of radioactivity per gram
